Measured values from ChEMBL document CHEMBL3046694, “3D QSAR STUDIES OF INHIBITORS OF EPIDERMAL GROWTH FACTOR RECEPTOR [EGFR] USING CoMFA AND GFA METHODOLOGIES” (Med Chem Res, 2004).

Target: Epidermal growth factor receptor (Homo sapiens, UniProt P00533)
Test: Inhibition of EGFR (unknown origin)

Epidermal growth factor receptor, sequence (P00533 whole entry): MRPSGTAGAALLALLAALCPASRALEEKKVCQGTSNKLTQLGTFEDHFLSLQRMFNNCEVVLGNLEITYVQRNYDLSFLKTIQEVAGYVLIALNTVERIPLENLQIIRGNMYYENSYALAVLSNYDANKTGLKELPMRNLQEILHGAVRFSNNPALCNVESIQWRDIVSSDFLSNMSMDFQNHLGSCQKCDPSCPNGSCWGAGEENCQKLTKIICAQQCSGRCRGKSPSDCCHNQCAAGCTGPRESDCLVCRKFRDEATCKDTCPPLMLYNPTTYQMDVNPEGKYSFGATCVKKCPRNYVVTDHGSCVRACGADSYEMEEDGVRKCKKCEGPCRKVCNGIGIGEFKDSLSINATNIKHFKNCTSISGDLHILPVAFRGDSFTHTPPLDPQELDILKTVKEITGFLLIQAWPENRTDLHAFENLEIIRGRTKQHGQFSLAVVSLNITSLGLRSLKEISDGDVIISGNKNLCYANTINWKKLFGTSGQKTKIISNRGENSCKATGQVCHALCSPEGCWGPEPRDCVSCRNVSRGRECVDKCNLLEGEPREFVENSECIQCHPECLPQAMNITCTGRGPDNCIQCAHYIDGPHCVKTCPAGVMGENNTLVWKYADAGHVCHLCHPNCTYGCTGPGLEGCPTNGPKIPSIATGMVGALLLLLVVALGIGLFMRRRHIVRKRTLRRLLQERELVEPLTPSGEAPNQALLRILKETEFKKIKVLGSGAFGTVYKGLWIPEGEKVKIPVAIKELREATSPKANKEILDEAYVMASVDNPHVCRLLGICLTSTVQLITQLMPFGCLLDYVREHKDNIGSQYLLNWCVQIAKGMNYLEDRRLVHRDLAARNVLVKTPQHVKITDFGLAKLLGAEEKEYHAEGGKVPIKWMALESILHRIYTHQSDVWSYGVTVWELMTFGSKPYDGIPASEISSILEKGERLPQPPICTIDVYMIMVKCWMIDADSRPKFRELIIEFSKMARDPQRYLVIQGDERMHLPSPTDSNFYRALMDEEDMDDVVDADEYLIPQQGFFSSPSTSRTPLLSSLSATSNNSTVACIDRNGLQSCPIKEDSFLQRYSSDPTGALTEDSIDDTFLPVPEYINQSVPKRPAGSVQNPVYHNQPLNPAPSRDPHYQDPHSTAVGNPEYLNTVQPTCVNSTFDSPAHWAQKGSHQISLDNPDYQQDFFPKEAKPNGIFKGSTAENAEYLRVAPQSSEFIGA

Row | Structure (SMILES) | IC50
1 | COCC#CC(=O)Nc1cc2c(Nc3cccc(Br)c3)c(C#N)cnc2cc1OC | 0.791 µM
2 | C=CC(=O)Nc1cc2c(Nc3cccc(Br)c3)c(C#N)cnc2cc1OC | 0.81 µM
3 | CN(C)C/C=C/C(=O)Nc1ccc2ncc(C#N)c(Nc3cccc(Br)c3)c2c1 | 0.31 µM
4 | COc1cc2ncc(C#N)c(Nc3cccc(Br)c3)c2cc1NC(=O)C#CCN(C)C | 0.09 µM
5 | CN(C)C/C=C/C(=O)Nc1ccc2ncc(C#N)c(Nc3ccc(F)c(Cl)c3)c2c1 | 0.65 µM
6 | N#Cc1cnc2ccc(NC(=O)C#CCN3CCSCC3)cc2c1Nc1cccc(Br)c1 | 0.55 µM
7 | COCCOCC#CC(=O)Nc1ccc2ncc(C#N)c(Nc3cccc(Br)c3)c2c1 | 0.93 µM
8 | COc1cc2ncc(C#N)c(Nc3cccc(Br)c3)c2cc1NC(=O)/C=C/CN(C)C | 0.79 µM
9 | CC#CC(=O)Nc1cc2c(Nc3cccc(Br)c3)c(C#N)cnc2cc1OC | 0.19 µM
10 | COCC#CC(=O)Nc1ccc2ncc(C#N)c(Nc3cccc(Br)c3)c2c1 | 0.96 µM
11 | C=CC(=O)Nc1ccc2ncc(C#N)c(Nc3cccc(Br)c3)c2c1 | 0.59 µM
12 | C=C(CN(C)C)C(=O)Nc1cc2c(Nc3ccc(F)c(Cl)c3)c(C#N)cnc2cc1OCC | 0.56 µM
13 | CC#CC(=O)Nc1ccc2ncc(C#N)c(Nc3cccc(Br)c3)c2c1 | 0.94 µM
14 | CCCNCC#CC(=O)Nc1ccc2ncc(C#N)c(Nc3cccc(Br)c3)c2c1 | 0.13 µM
15 | COC[C@@H]1CCCN1CC#CC(=O)Nc1ccc2ncc(C#N)c(Nc3cccc(Br)c3)c2c1 | 0.15 µM
